Source: patent US20250179000A1 (Sanford Burnham Prebys Medical Discovery Institute, priority 2021, published 2025)

Legend:
Type in all cases: cell-based
Rat mGlu2 = molecular target: T1, Rat mGlu2 (Rattus norvegicus, UniProt P31421); assay: mGlu receptor in vitro assay, thallium flux through GIRK channels, rat mGlu2; conditions: PAM potency with EC20 glutamate
T1 construct: expressed in transfected cells; host or cells: HEK-293 co-expressing GIRK channels
How it was run: (§1)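 HEK-293 cells co-expressing rat mGlu2 or mGlu3 and GIRK, dye-loaded with FluoZin2-AM, compound added about 2.5 min before thallium buffer with EC20 glutamate; potency from the 5-15 s fluorescence slope, 10-point 4-parameter fit. Calcium assay at mGlu3 used TREx293 mGlu3 Gα15 cells induced with tetracycline 20 ng/mL for 20 h.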

Human mGlu3 = Human mGlu3 (Homo sapiens, UniProt Q14832); assay: mGlu receptor in vitro assay, human mGlu3
Method: Human Embryonic Kidney (HEK-293) cell lines co-expressing rat mGlu receptors 2, 3, 4, 6, 7 or 8 and G protein-coupled inwardly-rectifying potassium (GIRK) channels were grown in Growth Media containing 45% DMEM, 45% F-12, 10% FBS, 20 mM HEPES, 2 mM L-glutamine, antibiotic/antimycotic, non-essential amino acids, 700 μg/mL G418, and 0.6 μg/ml puromycin at 37° C. in the presence of 5% CO2. […] All cell culture reagents were purchased from Invitrogen Corp. (Carlsbad, CA) unless otherwise noted. Calcium assays were used to assess activity of compounds at mGlu1 and mGlu5, as previously described in Engers et al (J. Med. Chem. 2009, 52, 4115-4118). Calcium assays at mGlu3 were performed as described for mGlu5 with the exception that TREx293 mGlu3 Gα15 cells were treated with tetracycline at 20 ng/mL for 20 h prior to assay.
Briefly, cells were plated into 384-well, black-walled, clear-bottomed poly-D-lysine-coated plates at a density of 15,000 cells/20 μL/well in DMEM containing 10% dialyzed FBS, 20 mM HEPES, and 100 units/mL penicillin/streptomycin (assay media). Plated cells were incubated overnight at 37° C. in the presence of 5% CO2. The following day, the medium was exchanged from the cells to assay buffer [Hanks' balanced salt solution (Invitrogen) containing 20 mM HEPES, pH 7.3] using an ELX405 microplate washer (BioTek), leaving 20 μL/well, followed by the addition of 20 μL/well FluoZin2-AM (330 nM final concentration) indicator dye (Invitrogen; prepared as a stock in DMSO and mixed in a 1:1 ratio with Pluronic acid F-127) in assay buffer. Cells were incubated for 1 h at room temperature, and the dye exchanged to assay buffer using an ELX405, leaving 20 μL/well. Test compounds were diluted to 2 times their final desired concentration in assay buffer (0.3% DMSO final concentration). Agonists were diluted in thallium buffer [125 mM sodium bicarbonate (added fresh the morning of the experiment), 1 mM magnesium sulfate, 1.8 mM calcium sulfate, 5 mM glucose, 12 mM thallium sulfate, and 10 mM HEPES, pH 7.3] at 5 times the final concentration to be assayed. Cell plates and compound plates were loaded onto a kinetic imaging plate reader (FDSS 6000 or 7000; Hamamatsu Corporation, Bridgewater, NJ). Appropriate baseline readings were taken (10 images at 1 Hz; excitation, 470±20 nm; emission, 540±30 nm) and test compounds were added in a 20 μL volume and incubated for approximately 2.5 min before the addition of 10 μL of thallium buffer with or without agonist. After the addition of agonist, data were collected for approximately an additional 2.5 min. Data were analyzed using Excel (Microsoft Corp, Redmond, WA). The slope of the fluorescence increase beginning 5 s after thallium/agonist addition and ending 15 s after thallium/agonist addition was calculated, corrected to vehicle and maximal agonist control slope values, and plotted in using either XLfit (ID Business Solutions Ltd) or Prism software (GraphPad Software, San Diego, CA) to generate concentration-response curves. Potencies were calculated from fits using a four-point parameter logistic equation. For concentration-response curve experiments, compounds were serially diluted 1:3 into 10-point concentration response curves and were transferred to daughter plates using an Echo acoustic plate reformatter (Labcyte, Sunnyvale, CA). Test compounds were applied and followed by EC20 concentrations of glutamate.

Human mGlu2 = Human mGlu2 (Homo sapiens, UniProt Q14416); assay: mGlu receptor in vitro assay, human mGlu2
Rat mGlu3 = molecular target: T2, Rat mGlu3 (Rattus norvegicus, UniProt P31422); assay: mGlu receptor in vitro assay (thallium flux through GIRK channels / calcium assay), rat mGlu3; conditions: PAM potency with EC20 glutamate
T2 construct: expressed in transfected cells; host or cells: HEK-293 co-expressing GIRK channels
How it was run: as §1

Human mGlu2, sequence (Q14416 19-872): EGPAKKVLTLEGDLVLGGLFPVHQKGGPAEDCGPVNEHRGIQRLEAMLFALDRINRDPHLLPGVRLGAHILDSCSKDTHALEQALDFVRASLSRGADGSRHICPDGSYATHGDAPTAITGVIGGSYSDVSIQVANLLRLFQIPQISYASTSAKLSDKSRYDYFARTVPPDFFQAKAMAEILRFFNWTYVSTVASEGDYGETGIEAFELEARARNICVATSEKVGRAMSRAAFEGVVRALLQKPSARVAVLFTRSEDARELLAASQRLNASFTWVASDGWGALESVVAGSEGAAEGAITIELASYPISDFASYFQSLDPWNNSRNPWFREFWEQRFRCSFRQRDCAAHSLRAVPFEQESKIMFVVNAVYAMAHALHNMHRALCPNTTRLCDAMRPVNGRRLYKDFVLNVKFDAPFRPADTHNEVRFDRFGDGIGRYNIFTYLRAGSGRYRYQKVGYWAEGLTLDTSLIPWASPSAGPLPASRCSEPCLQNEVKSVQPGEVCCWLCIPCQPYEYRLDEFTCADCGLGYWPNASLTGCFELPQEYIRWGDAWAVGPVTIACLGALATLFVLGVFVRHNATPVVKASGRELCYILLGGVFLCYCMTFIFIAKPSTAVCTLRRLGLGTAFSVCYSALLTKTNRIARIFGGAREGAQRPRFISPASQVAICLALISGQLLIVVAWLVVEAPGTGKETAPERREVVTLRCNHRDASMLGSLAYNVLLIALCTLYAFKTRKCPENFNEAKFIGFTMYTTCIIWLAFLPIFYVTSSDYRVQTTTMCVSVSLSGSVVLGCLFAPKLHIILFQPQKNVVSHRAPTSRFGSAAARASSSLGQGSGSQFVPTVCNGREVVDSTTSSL
Human mGlu3, sequence (Q14832 23-879): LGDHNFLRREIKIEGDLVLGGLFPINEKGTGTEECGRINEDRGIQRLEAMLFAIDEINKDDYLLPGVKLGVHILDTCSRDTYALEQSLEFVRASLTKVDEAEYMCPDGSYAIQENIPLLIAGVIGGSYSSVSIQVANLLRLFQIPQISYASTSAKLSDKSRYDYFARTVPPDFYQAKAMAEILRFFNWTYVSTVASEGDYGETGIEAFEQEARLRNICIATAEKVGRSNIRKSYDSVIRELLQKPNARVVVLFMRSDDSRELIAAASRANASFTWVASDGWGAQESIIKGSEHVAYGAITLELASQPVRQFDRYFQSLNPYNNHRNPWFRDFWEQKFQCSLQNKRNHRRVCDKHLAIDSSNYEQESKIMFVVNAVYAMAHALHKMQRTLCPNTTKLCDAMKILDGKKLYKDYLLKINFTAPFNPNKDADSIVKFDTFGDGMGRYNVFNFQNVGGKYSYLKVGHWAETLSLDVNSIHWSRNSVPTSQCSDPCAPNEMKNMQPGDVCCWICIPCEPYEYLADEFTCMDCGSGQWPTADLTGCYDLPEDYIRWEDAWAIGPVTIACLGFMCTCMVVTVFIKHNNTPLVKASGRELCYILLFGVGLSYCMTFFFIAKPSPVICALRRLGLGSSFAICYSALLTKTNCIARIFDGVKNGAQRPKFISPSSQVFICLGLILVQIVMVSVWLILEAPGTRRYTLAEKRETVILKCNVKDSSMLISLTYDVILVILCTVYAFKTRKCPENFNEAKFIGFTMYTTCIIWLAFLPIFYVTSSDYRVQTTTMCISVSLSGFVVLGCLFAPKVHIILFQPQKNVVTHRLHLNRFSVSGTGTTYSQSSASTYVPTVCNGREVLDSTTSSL
T1 sequence (P31421 19-872): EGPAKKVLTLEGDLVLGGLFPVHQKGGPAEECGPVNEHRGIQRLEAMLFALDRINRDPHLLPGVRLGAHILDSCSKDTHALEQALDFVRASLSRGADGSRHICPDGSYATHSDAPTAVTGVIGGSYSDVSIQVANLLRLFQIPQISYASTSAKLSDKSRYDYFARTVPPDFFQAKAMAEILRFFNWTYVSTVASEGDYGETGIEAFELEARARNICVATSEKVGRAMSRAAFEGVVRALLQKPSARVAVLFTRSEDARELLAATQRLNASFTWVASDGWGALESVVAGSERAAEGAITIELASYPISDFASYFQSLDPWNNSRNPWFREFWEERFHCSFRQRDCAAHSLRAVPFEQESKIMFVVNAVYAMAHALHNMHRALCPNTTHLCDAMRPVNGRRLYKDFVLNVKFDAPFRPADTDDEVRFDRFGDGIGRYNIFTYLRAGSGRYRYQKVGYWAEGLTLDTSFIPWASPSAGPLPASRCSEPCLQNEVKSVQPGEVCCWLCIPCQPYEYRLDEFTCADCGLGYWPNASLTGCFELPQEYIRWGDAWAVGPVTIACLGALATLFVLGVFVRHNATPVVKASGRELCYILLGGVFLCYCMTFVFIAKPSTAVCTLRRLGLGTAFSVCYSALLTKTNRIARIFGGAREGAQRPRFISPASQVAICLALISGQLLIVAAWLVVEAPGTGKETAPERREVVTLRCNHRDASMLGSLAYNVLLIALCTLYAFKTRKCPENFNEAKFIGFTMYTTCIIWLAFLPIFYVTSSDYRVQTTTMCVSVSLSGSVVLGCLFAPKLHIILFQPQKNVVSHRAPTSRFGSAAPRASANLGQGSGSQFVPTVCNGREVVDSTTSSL
T2 sequence (P31422 23-879): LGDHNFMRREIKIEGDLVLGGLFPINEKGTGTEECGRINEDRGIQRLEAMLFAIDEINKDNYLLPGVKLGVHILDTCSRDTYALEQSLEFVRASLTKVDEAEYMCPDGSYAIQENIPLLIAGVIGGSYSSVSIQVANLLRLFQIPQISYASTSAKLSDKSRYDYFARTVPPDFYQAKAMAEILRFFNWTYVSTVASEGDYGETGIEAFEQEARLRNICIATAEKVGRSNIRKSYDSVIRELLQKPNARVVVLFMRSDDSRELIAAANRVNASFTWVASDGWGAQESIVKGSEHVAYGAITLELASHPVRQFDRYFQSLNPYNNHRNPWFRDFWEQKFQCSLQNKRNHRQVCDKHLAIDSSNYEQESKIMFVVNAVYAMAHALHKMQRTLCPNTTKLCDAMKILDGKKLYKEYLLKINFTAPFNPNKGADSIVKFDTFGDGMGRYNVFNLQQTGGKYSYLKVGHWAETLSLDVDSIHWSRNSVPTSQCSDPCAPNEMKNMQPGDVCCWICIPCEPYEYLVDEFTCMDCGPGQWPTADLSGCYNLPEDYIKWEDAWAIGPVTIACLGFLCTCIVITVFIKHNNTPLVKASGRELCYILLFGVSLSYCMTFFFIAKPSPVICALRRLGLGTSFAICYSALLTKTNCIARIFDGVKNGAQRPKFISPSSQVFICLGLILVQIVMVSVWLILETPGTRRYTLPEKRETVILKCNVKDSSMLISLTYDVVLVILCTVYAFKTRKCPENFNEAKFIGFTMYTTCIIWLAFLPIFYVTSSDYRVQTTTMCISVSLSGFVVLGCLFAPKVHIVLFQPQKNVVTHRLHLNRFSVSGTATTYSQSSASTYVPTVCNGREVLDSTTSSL

| SMILES | EC50 (Rat mGlu2) [nM] | EC50 (Human mGlu3) [nM] | EC50 (Human mGlu2) [nM] | EC50 (Rat mGlu3) [nM] |
| --- | --- | --- | --- | --- |
| Cc1c(OCc2nc(-c3cccc(C(=O)O)c3)no2)ccc(C(=O)CC(C)(C)C)c1O [compound 133, 3-(5-((4-(3,3-Dimethylbutanoyl)-3-hydroxy-2-methylphenoxy)methyl)-1,2,4-oxadiazol-3-yl)benzoic acid] | 268 | 79 | 74 | 247 |
| CCCC(=O)c1ccc(OCc2nc(-c3cccc(C(=O)O)c3)no2)c(C)c1O [compound 135, 3-(5-((4-Butyryl-3-hydroxy-2-methylphenoxy)methyl)-1,2,4-oxadiazol-3-yl)benzoic acid] | 106 | 748 | 133 | 660 |
| COc1ccc(C(=O)O)cc1-c1cnc(COc2ccc(C(=O)CC(C)(C)C)c(O)c2C)cn1 [compound 116, 3-(5-((4-(3,3-Dimethylbutanoyl)-3-hydroxy-2-methylphenoxy)methyl)pyrazin-2-yl)-4-methoxybenzoic acid] | 117 | 213 | 234 | 28 |
| Cc1c(OCc2cccc(-c3cccc(C(=O)NC#N)c3)c2)ccc(C(=O)CC(C)(C)C)c1O [compound 162, N-Cyano-3′-((4-(3,3-dimethylbutanoyl)-3-hydroxy-2-methylphenoxy)methyl)-[1,1′-biphenyl]-3-carboxamide] | 166 | 593 | 234 | 145 |
| Cc1c(C(=O)O)cccc1-c1cccc(COc2ccc(C(=O)CC(C)(C)C)c(O)c2C)c1 [compound 160, 3′-((4-(3,3-Dimethylbutanoyl)-3-hydroxy-2-methylphenoxy)methyl)-2-methyl-[1,1′-biphenyl]-3-carboxylic acid] | 92 | 1480 | 203 | 855 |
| COc1c(C(=O)O)cccc1-c1ccc(COc2ccc(C(=O)CC(C)(C)C)c(O)c2C)cc1 [compound 104, 3-(4-{[4-(3,3-Dimethylbutanoyl)-3-hydroxy-2-methylphenoxy]methyl}phenyl)-2-methoxybenzoic acid] | 303 | 222 | 190 | 69 |
| [2H]C([2H])(CCCC([2H])([2H])Oc1ccc(C(=O)CCC)c(O)c1C)Oc1cccc(C(=O)O)c1C [Example 35] | 174 | > 10000 | 66 | > 10000 |
| Cc1c(OCCOCCOc2ccc(C(=O)CC(C)(C)C)c(O)c2C)cccc1C(=O)O [Example 23, 3-(2-{2-[4-(3,3-Dimethylbutanoyl)-3-hydroxy-2-methylphenoxy]ethoxy}ethoxy)-2-methylbenzoic acid] | 91 | 327 | 45 | 491 |
| CCCC(=O)c1ccc(OC/C=C/COc2cccc(C(=O)O)c2C)c(C)c1O [Example 8, (E)-3-((4-(4-Butyryl-3-hydroxy-2-methylphenoxy)but-2-en-1-yl)oxy)-2-methylbenzoic acid] | 19 | 534 | 10 | 489 |
| Cc1c(OCCCCCOc2ccc(C(=O)CC(C)(C)C)c(O)c2C)cccc1C(=O)O [Example 17, 3-{5-[4-(3,3-Dimethylbutanoyl)-3-hydroxy-2-methylphenoxy]pentyloxy}-2-methylbenzoic acid] | 355 | 768 | 153 | 1520 |
| Cc1c(OCCCCCOc2ccc(C(=O)O)c(Cl)c2)ccc(C(=O)CC(C)C)c1O [Example 46, 2-Chloro-4-{5-[3-hydroxy-2-methyl-4-(3-methylbutanoyl)phenoxy]pentyloxy}benzoic acid] | 39 | 414 | 12 | 427 |
| COc1ccc(C(=O)O)cc1OCCCCOc1ccc(C(=O)C2CC2)c(O)c1C [compound 60, 3-(4-(4-(Cyclopropanecarbonyl)-3-hydroxy-2-methylphenoxy)butoxy)-4-methoxybenzoic acid] | 117 | 598 | 60 | > 10000 |
| CCCC(=O)c1ccc(OCCCCCOc2ccc(Cl)c(C(=O)O)c2)c(C)c1O [Example 52, 5-[5-(4-Butanoyl-3-hydroxy-2-methylphenoxy)pentyloxy]-2-chlorobenzoic acid] | 36 | > 30000 | 25 | > 30000 |
| COc1ccc(C(=O)O)cc1-c1cncc(COc2ccc(C(=O)C3CC3)c(O)c2C)n1 [compound 69, 3-(6-((4-(Cyclopropanecarbonyl)-3-hydroxy-2-methylphenoxy)methyl)pyrazin-2-yl)-4-methoxybenzoic acid] | 49 | 23 | 33 | 28 |
| Cc1c(OCCCCOc2ccc(C(=O)O)c(F)c2)ccc(C(=O)CC(C)C)c1O [compound 100, 2-Fluoro-4-{4-[3-hydroxy-2-methyl-4-(3-methylbutanoyl)phenoxy]butoxy}benzoic acid] | 79 | 773 | 15 | 732 |
| CCCC(=O)c1ccc(OCC2(COc3cccc(C(=O)O)c3C)CC2)c(C)c1O [Example 36, 3-({[(4-Butanoyl-3-hydroxy-2-methylphenoxy)methyl]cyclopropyl}methoxy)-2-methylbenzoic acid] | 89 | > 30000 | 14 | > 30000 |
| COc1ccc(C(=O)O)cc1C#CCCCOc1ccc(C(=O)CC(C)(C)C)c(O)c1C [Example 2, 3-(5-(4-(3,3-Dimethylbutanoyl)-3-hydroxy-2-methylphenoxy)pent-1-yn-1-yl)-4-methoxybenzoic acid] | 456 | 79 | 144 | 91 |
| CCCC(=O)c1ccc(OCCCCCOc2cccc(C(=O)O)c2C)c(C)c1O [Example 13] | 114 | > 10000 | 52 | > 10000 |
| COc1cc(F)c(C(=O)O)cc1-c1cnc(COc2ccc(C(=O)CC(C)(C)C)c(O)c2C)cn1 [compound 130, 5-(5-((4-(3,3-Dimethylbutanoyl)-3-hydroxy-2-methylphenoxy)methyl)pyrazin-2-yl)-2-fluoro-4-methoxybenzoic acid] | 254 | 31 | 76 | 53 |
| COc1ccc(C(=O)O)cc1OCCCCOc1ccc(C(=O)c2ccc(F)cc2)c(O)c1C [compound 65, 3-(4-(4-(4-Fluorobenzoyl)-3-hydroxy-2-methylphenoxy)butoxy)-4-methoxybenzoic acid] | 1150 | 342 | 143 | 3030 |
| CCCC(=O)c1ccc(OCCOCCOc2ccc(C(=O)O)cc2OC)c(C)c1O [Example 5, 4-(2-(2-(4-Butyryl-3-hydroxy-2-methylphenoxy)ethoxy)ethoxy)-3-methoxybenzoic acid] | 27 | > 10000 | 26 | > 10000 |
| CCCC(=O)c1ccc(OCCCCOc2ccc(C(=O)O)c(Cl)c2)c(C)c1O [compound 101, 4-[4-(4-Butanoyl-3-hydroxy-2-methylphenoxy)butoxy]-2-chlorobenzoic acid] | 33 | > 30000 | 16 | > 30000 |
